Assay results: BigSolDB 2.1

CCS(=O)(=O)c1cccnc1S(=O)(=O)NC(=O)Nc1nc(OC)cc(OC)n1
solubility (mole fraction)
Conditions | 278.15 K | 283.15 K | 288.15 K | 293.15 K | 298.15 K | 303.15 K | 308.15 K | 313.15 K | 318.15 K | 323.15 K
in DMF | 5.64e-05 | 7.09e-05 | 8.7e-05 | 0.000106 | 0.000125 | 0.000148 | 0.000172 | 0.000199 | 0.000228 | 0.000262
in ethanol | 1.91e-05 | 2.32e-05 | 2.82e-05 | 3.4e-05 | 4.03e-05 | 4.76e-05 | 5.52e-05 | 6.36e-05 | 7.34e-05 | 8.5e-05
in ethylene glycol | 7.03e-06 | 8.83e-06 | 1.07e-05 | 1.28e-05 | 1.53e-05 | 1.79e-05 | 2.08e-05 | 2.38e-05 | 2.76e-05 | 3.19e-05
in methanol | 2.17e-05 | 2.67e-05 | 3.26e-05 | 3.96e-05 | 4.7e-05 | 5.5e-05 | 6.37e-05 | 7.48e-05 | 8.56e-05 | 9.85e-05
in water | 2.28e-07 | 2.82e-07 | 3.44e-07 | 4.13e-07 | 4.88e-07 | 5.76e-07 | 6.77e-07 | 7.75e-07 | 8.96e-07 | 1.02e-06
